Laboratory results taken from patent US20240350643A1, “PROTEIN DEGRADATION AGENT” (SUZHOU KINTOR PHARMACEUTICALS, INC., priority 2021, published 2024).

Assays:
c-Myc protein = target: T1, c-Myc protein (Homo sapiens, UniProt P01106); assay: Ability of compounds to degrade c-Myc protein in HL60 cells (ELISA); type: cell-based; settings: HL-60, 1 μM compound, 24 h, read-out: HL60 cells Protein degradation rate (1 μM)
T1 construct: endogenous in cells; host or cells: HL60 cells

HL60 cells = assay: Anti-proliferation ability of compounds on HL60 cells (CTG); type: cell-based, human; settings: Homo sapiens, HL-60, 72 h, 3 days, CellTiter-Glo, read-out: HL60 cells Proliferation inhibitory activity
Method in brief: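 HL60 cells (20000/well) exposed to serially diluted compounds (0.1% DMSO vehicle control) for 3 days. Viability read by CellTiter-Glo luminescence; IC50 fitted from inhibition rates.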

T1 sequence (P01106 whole entry): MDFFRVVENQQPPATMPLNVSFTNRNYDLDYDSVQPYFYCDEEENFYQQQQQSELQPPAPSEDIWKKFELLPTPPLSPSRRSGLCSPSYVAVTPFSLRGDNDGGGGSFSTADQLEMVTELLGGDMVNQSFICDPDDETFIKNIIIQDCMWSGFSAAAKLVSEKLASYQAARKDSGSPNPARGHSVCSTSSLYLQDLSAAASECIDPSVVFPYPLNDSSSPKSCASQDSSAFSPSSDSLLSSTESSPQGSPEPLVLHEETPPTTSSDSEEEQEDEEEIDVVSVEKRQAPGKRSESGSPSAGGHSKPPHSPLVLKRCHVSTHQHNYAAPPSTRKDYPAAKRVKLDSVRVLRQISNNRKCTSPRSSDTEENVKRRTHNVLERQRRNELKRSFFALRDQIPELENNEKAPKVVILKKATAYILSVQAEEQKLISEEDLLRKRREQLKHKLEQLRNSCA

Row | Structure (SMILES) | inhibition at 1 µM (c-Myc protein) [%] | IC50 (HL60 cells) [nM]
1 | O=C(Cn1c2ccccc2c2ccccc21)NCCCCCCCCNC(=O)c1ccc2c(c1)C(=O)N(C1CCC(=O)NC1=O)C2=O (stereo not shown) [A14] | 30 to 60 | 226 ± 72
2 | O=C(Cc1cccc2ccc(F)cc12)NCc1ccc(CNC(=O)c2ccc3c(c2)C(=O)N(C2CCC(=O)NC2=O)C3=O)cc1 (stereo not shown) [A36] | 30 to 60 | 13.4 ± 3.3
3 | O=C(Cn1c2ccccc2c2cccnc21)NCc1ccc(CCNC(=O)c2ccc3c(c2)C(=O)N(C2CCC(=O)NC2=O)C3=O)cc1 (stereo not shown) [A43] | 60 to 90 | 282 ± 27.5
4 | COc1cc(CN(C)CCn2c3ccccc3c3cccnc32)ccc1CNC(=O)c1ccc2c(c1)C(=O)N(C1CCC(=O)NC1=O)C2=O (stereo not shown) [A114] | 60 to 90 | 6.5 ± 0.3
5 | O=C(Cc1cccc2ccccc12)NCc1ccc(C2(NC(=O)c3ccc4c(c3)C(=O)N(C3CCC(=O)NC3=O)C4=O)CC2)cc1 (stereo not shown) [A137] | 60 to 90 | 239 ± 35
6 | O=C(Cn1c2ccccc2c2cccnc21)NCc1ccc(CC(=O)Nc2ccc3c(c2)C(=O)N(C2CCC(=O)NC2=O)C3=O)cc1 (stereo not shown) [A166] | 60 to 90 | 1.7 ± 0.3
7 | CN(CCn1c2ccccc2c2cccnc21)Cc1ccc(CNC(=O)c2ccc3c(c2)C(=O)N(C2CCC(=O)NC2=O)C3=O)cc1 (stereo not shown) [A84] | 60 to 90 | 13.1 ± 6.2
8 | CC(C)(NC(=O)Cc1cccc2ccccc12)c1ccc(CNC(=O)c2ccc3c(c2)C(=O)N(C2CCC(=O)NC2=O)C3=O)cc1 (stereo not shown) [A149] | 60 to 90 | 7.6 ± 3
9 | O=C(Cn1c2ccccc2c2cccnc21)NCc1cnc(CNC(=O)c2ccc3c(c2)C(=O)N(C2CCC(=O)NC2=O)C3=O)s1 (stereo not shown) [A134] | 60 to 90 | 334 ± 83.5
10 | CC(=O)N(CCn1c2ccccc2c2cccnc21)Cc1ccc(CNC(=O)c2ccc3c(c2)C(=O)N(C2CCC(=O)NC2=O)C3=O)cc1 (stereo not shown) [A82] | 60 to 90 | < 3
11 | O=C(Cc1cccc2ccccc12)NC[C@H]1CC[C@H](CNc2ccc3c(c2)C(=O)N(C2CCC(=O)NC2=O)C3=O)CC1 (stereo partly shown) [A27] | 10 to 30 | 6800 ± 1540
12 | O=C(Cn1c2ccccc2c2cccnc21)NCc1ccc(CNC(=O)c2ccc3c(c2)C(=O)N(C2CCC(=O)NC2=O)C3=O)cc1C(F)(F)F (stereo not shown) [A122] | 60 to 90 | 5.9 ± 3.9
13 | O=C(Cc1cccc(Cl)c1Cl)NCc1ccc(CNC(=O)c2ccc3c(c2)C(=O)N(C2CCC(=O)NC2=O)C3=O)cc1 (stereo not shown) [A60] | 10 to 30 | 48.5 ± 6
14 | O=C(Cn1c2ccccc2c2cccnc21)NCc1ccc(CNC(=O)c2ccc3c(c2)C(=O)N(C2CCC(=O)NC2=O)C3=O)c(C(F)(F)F)c1 (stereo not shown) [A118] | 60 to 90 | 18.2 ± 11.4
15 | O=C(Cc1cccc2ccccc12)NCCc1ccc(CNC(=O)c2ccc3c(c2)C(=O)N(C2CCC(=O)NC2=O)C3=O)cc1 (stereo not shown) [A40] | 60 to 90 | 306 ± 73.8
16 | O=C(CC1c2ccccc2-c2ccccc21)NCCCCCCNC(=O)c1ccc2c(c1)C(=O)N(C1CCC(=O)NC1=O)C2=O (stereo not shown) [A11] | 10 to 30 | 1240 ± 490
17 | O=C1CCC(N2C(=O)c3ccc(C(=O)NCc4ccc(C5(NC(=O)Cn6c7ccccc7c7cccnc76)CC5)cc4)cc3C2=O)C(=O)N1 (stereo not shown) [A142] | 60 to 90 | 6.1 ± 0.9
18 | O=C(Cc1cccc2ccccc12)NCc1ccc(CNC(=O)c2ccc3c(c2)C(=O)N(C2CCC(=O)NC2=O)C3=O)c(F)c1 (stereo not shown) [A103] | 60 to 90 | 5.8 ± 2.5
19 | COc1cc(CNC(=O)c2ccc3c(c2)C(=O)N(C2CCC(=O)NC2=O)C3=O)ccc1CNC(=O)Cn1c2ccccc2c2cccnc21 (stereo not shown) [A116] | 60 to 90 | 5.5 ± 3.3
20 | O=C(Cc1ccccc1Br)NCc1ccc(CNC(=O)c2ccc3c(c2)C(=O)N(C2CCC(=O)NC2=O)C3=O)cc1 (stereo not shown) [A65] | 60 to 90 | 473 ± 93.3
21 | O=C(Cn1c2ccccc2c2cccnc21)NCc1ccc(CNCc2ccc3c(c2)C(=O)N(C2CCC(=O)NC2=O)C3=O)cc1 (stereo not shown) [A176] | 60 to 90 | 2.1 ± 0.6
22 | O=C(Cn1c2ccccc2c2cccnc21)NCc1ccc(CNC(=O)c2ccc3c(c2)C(=O)N(C2CCC(=O)NC2=O)C3=O)cn1 (stereo not shown) [A129] | 60 to 90 | 36.1 ± 13.3
23 | O=C(Cn1c2ccccc2c2ccccc21)NCCCCCCNC(=O)c1ccc2c(c1)C(=O)N(C1CCC(=O)NC1=O)C2=O (stereo not shown) [A1] | 30 to 60 | 335 ± 83.1
24 | O=C(Cn1c2ccccc2c2cccnc21)NCc1ccc(CNC(=O)c2ccc3c(c2)C(=O)N(C2CCC(=O)NC2=O)C3=O)nc1 (stereo not shown) [A125] | 60 to 90 | 26.1 ± 2

Row | Structure (SMILES) | inhibition at 1 µM (c-Myc protein) [%] | IC50 (HL60 cells) [nM]
25 | O=C(Cc1cccc2ccccc12)NCc1ccc(CNCc2ccc3c(c2)CN(C2CCC(=O)NC2=O)C3=O)c(F)c1 (stereo not shown) [A196] | 60 to 90 | 0.5 ± 0.1
26 | O=C(Cc1cccc2ccccc12)NCc1ccc(CNC(=O)c2ccc3c(c2)C(=O)N(C2CCC(=O)NC2=O)C3=O)cc1 (stereo not shown) [A29] | 60 to 90 | 30.1 ± 21.1
27 | O=C(CCc1ccccc1Cl)NCc1ccc(CNC(=O)c2ccc3c(c2)C(=O)N(C2CCC(=O)NC2=O)C3=O)cc1 (stereo not shown) [A62] | 60 to 90 | 320 ± 17.6
28 | O=C(Cn1c2ccccc2c2cccnc21)NCc1ccc(CNC(=O)c2ccc3c(c2)C(=O)N(C2CCC(=O)NC2=O)C3=O)cc1 (stereo not shown) [A30] | 60 to 90 | 18 ± 11.5
29 | CN(CCn1c2ccccc2c2cccnc21)C1(c2ccc(CNC(=O)c3ccc4c(c3)C(=O)N(C3CCC(=O)NC3=O)C4=O)cc2)CC1 (stereo not shown) [A144] | 60 to 90 | 18.4 ± 7.4
30 | O=C1CCC(N2C(=O)c3ccc(C(=O)NC[C@H]4CC[C@H](CNC(=O)Nc5cccc6ncccc56)CC4)cc3C2=O)C(=O)N1 (stereo partly shown) [A50] | 10 to 30 | 10400 ± 235
31 | O=C(Cc1cccc(Cl)c1)NCc1ccc(CNC(=O)c2ccc3c(c2)C(=O)N(C2CCC(=O)NC2=O)C3=O)cc1 (stereo not shown) [A58] | 60 to 90 | 285 ± 10.7
32 | O=C(Cn1c2ccccc2c2cccnc21)NCc1ccc(CNC(=O)c2ccc3c(c2)CN([C@H]2CCC(=O)NC2=O)C3=O)cc1 [A224] | 60 to 90 | 1.7 ± 1.3
33 | O=C1CCC(N2C(=O)c3ccc(C(=O)NCc4ccc(CN(CCn5c6ccccc6c6cccnc65)c5ccccc5)cc4)cc3C2=O)C(=O)N1 (stereo not shown) [A95] | 60 to 90 | 43.6 ± 44
34 | O=C(Cc1c(F)ccc2ccccc12)NCc1ccc(CNC(=O)c2ccc3c(c2)CN(C2CCC(=O)NC2=O)C3=O)cc1 (stereo not shown) [A154] | 60 to 90 | 1.2 ± 0.1
35 | CN(CCc1cccc2cccnc12)Cc1ccc(CNCc2ccc3c(c2)C(=O)N(C2CCC(=O)NC2=O)C3=O)cc1 (stereo not shown) [A183] | 60 to 90 | 16.7 ± 2.5
36 | CN(CCc1ccc(Cl)c(Cl)c1)Cc1ccc(CNCc2ccc3c(c2)C(=O)N(C2CCC(=O)NC2=O)C3=O)cc1 (stereo not shown) [A184] | 60 to 90 | 11.9 ± 5.5
37 | CN(CCc1ccc(Cl)cc1Cl)Cc1ccc(CC(=O)Nc2ccc3c(c2)C(=O)N(C2CCC(=O)NC2=O)C3=O)cc1 (stereo not shown) [A169] | 60 to 90 | 1.9 ± 0.6
38 | O=C1CCC(N2C(=O)c3ccc(C(=O)NCc4ccc(CN(CCn5c6ccccc6c6cccnc65)C5CC5)cc4)cc3C2=O)C(=O)N1 (stereo not shown) [A89] | 60 to 90 | 81.1 ± 36.9
39 | O=C(Cc1cccc2ccccc12)NCc1ccc(CCNC(=O)c2ccc3c(c2)C(=O)N(C2CCC(=O)NC2=O)C3=O)cc1 (stereo not shown) [A42] | 60 to 90 | 3640 ± 895
40 | O=C(Cc1cccc2ccccc12)NCc1ccc(CNCc2ccc3c(c2)C(=O)N(C2CCC(=O)NC2=O)C3=O)cc1 (stereo not shown) [A175] | 60 to 90 | 14.4 ± 6.4
41 | CN(CCn1c2ccccc2c2cccnc21)Cc1ccc(CNC(=O)c2ccc3c(c2)C(=O)N(C2CCC(=O)NC2=O)C3=O)cc1C(F)(F)F (stereo not shown) [A123] | 60 to 90 | 35.2 ± 9.3
42 | O=C(Cc1cccc2ccccc12)NCc1ccc(CNC(=O)c2ccc3c(c2)C(=O)N(C2CCC(=O)NC2=O)C3=O)c(C(F)(F)F)c1 (stereo not shown) [A117] | 60 to 90 | 13.8 ± 4
43 | CC(C)(C(=O)NCc1ccc(CNC(=O)c2ccc3c(c2)C(=O)N(C2CCC(=O)NC2=O)C3=O)cc1)c1cccc2ccccc12 (stereo not shown) [A31] | 60 to 90 | 1360
44 | O=C(Cc1nccc2ccccc12)NCc1ccc(CC(=O)Nc2ccc3c(c2)CN(C2CCC(=O)NC2=O)C3=O)cc1 (stereo not shown) [A172] | 60 to 90 | < 3
45 | CC(C)(C(=O)NCc1ccc(CNC(=O)c2ccc3c(c2)C(=O)N(C2CCC(=O)NC2=O)C3=O)cc1)c1ccccc1 (stereo not shown) [A69] | 60 to 90 | 710 ± 40.1
46 | O=C1CCC(N2C(=O)c3ccc(C(=O)NCc4ccc(CN(CCc5cccc6ccccc56)C(=O)C5CC5)cc4)cc3C2=O)C(=O)N1 (stereo not shown) [A81] | 60 to 90 | < 3
47 | O=C1CCC(N2C(=O)c3ccc(C(=O)NCc4ccc(CNCCn5c6ccccc6c6cccnc65)cc4)cc3C2=O)C(=O)N1 (stereo not shown) [A74] | 60 to 90 | 5.5 ± 2.3
